Measurements reported in ChEMBL document CHEMBL3603797, “Factors that influence T box riboswitch efficacy and tRNA affinity” (Bioorg Med Chem, 2015).
The source made the active and inactive calls. The calls are words filed in the database; no cut-off is given here.

Tests used:
[1] = Binding affinity to Bacillus subtilis glyQS T box riboswitch mRNA assessed as inhibition of tRNAgly-induced glyQS transcription readthrough after 3 hrs by fluorescence assay
[2] = Inhibition of readthrough probe 5'Cy5-CGCAccuccacuuuucuuucauaaTGCG-Dabcyl3' binding to 5'UUAUGAAAGAAAAGUGGAGGUGC3' RNA (unknown origin) by fluorescence assay

For `CN(CCCc1ccccc1)Cc1cn(CC(O)COC(=O)NCc2ccccc2)nn1` (configuration not stated), the IC50 [1] was 8 µM and the inhibition [2] was “inactive”.
